Laboratory results: ChEMBL document CHEMBL4373715, “Discovery and Biological Evaluations of Halogenated 2,4-Diphenyl Indeno[1,2-b]pyridinol Derivatives as Potent Topoisomerase IIα-Targeted Chemotherapeutic Agents for Breast Cancer” (J Med Chem, 2019)

Columns and labels:
[1] = biological target: DNA topoisomerase 2-alpha (Homo sapiens) (UniProt P11388); test: Inhibition of recombinant human topoisomerase 2alpha-mediated relaxation of supercoiled pBR322 DNA at 20 uM measured after 30 mins by ethidium bromide staining based agarose gel electrophoresis relative to control
Sequence of DNA topoisomerase 2-alpha (Homo sapiens) (P11388 whole entry): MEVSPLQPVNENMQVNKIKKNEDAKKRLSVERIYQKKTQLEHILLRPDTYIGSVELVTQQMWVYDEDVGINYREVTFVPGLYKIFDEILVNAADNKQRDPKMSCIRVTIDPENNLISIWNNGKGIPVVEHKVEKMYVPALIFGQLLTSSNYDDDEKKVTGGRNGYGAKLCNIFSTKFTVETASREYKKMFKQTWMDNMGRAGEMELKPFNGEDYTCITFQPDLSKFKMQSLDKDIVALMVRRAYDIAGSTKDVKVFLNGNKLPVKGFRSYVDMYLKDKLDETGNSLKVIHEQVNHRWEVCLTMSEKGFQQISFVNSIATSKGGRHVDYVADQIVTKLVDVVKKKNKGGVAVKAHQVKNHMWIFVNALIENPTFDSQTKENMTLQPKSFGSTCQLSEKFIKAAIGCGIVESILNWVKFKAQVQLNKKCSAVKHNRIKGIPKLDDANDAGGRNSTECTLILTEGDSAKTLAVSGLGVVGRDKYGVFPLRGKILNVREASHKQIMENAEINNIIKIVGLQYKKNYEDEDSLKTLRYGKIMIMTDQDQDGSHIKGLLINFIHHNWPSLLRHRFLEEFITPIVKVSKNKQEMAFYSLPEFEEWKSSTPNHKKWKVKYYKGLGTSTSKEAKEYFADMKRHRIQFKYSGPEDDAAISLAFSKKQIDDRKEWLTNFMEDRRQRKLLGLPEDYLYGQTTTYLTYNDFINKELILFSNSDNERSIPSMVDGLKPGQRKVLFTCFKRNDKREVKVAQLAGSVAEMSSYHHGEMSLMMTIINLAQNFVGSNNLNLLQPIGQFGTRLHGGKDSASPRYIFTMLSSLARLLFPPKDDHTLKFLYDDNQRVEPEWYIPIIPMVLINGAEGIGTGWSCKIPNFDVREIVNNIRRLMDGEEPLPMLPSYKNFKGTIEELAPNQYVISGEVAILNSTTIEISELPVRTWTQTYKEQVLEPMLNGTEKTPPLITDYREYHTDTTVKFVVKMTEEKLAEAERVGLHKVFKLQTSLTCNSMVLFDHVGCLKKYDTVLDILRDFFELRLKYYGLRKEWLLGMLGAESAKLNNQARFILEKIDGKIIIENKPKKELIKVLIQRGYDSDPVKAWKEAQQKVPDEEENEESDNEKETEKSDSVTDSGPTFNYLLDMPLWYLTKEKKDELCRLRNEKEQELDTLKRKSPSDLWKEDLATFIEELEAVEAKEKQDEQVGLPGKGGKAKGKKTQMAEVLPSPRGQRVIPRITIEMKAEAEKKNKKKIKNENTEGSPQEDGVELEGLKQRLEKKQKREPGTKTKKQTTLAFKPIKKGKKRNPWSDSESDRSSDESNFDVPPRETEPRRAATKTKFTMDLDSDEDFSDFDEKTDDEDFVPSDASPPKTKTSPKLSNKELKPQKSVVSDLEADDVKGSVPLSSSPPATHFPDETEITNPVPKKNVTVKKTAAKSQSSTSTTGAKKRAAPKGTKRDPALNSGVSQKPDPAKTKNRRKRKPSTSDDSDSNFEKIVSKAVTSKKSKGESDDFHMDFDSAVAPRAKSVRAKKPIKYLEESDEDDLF

T47D = test: Antiproliferative activity against human T47D cells measured after 72 hrs by EZ-Cytox assay; assay type: functional, cell-based
HeLa = test: Antiproliferative activity against human HeLa cells measured after 72 hrs by EZ-Cytox assay; assay type: functional, cell-based
DU-145 = test: Antiproliferative activity against human DU145 cells measured after 72 hrs by EZ-Cytox assay; assay type: functional, cell-based; settings: DU-145, 72 h
HCT-15 = test: Antiproliferative activity against human HCT15 cells measured after 72 hrs by EZ-Cytox assay; assay type: functional, cell-based; settings: HCT-15, 72 h
[2] = biological target: DNA topoisomerase 2-alpha (Homo sapiens) (UniProt P11388); test: Inhibition of recombinant human topoisomerase 2alpha-mediated relaxation of supercoiled pBR322 DNA at 100 uM measured after 30 mins by ethidium bromide staining based agarose gel electrophoresis relative to control
[3] = biological target: T1, DNA topoisomerase 1 (Homo sapiens) (UniProt P11387); test: Inhibition of recombinant human topoisomerase 1-mediated relaxation of supercoiled pBR322 DNA at 100 uM measured after 30 mins by ethidium bromide staining based agarose gel electrophoresis relative to control
T1 sequence (whole entry): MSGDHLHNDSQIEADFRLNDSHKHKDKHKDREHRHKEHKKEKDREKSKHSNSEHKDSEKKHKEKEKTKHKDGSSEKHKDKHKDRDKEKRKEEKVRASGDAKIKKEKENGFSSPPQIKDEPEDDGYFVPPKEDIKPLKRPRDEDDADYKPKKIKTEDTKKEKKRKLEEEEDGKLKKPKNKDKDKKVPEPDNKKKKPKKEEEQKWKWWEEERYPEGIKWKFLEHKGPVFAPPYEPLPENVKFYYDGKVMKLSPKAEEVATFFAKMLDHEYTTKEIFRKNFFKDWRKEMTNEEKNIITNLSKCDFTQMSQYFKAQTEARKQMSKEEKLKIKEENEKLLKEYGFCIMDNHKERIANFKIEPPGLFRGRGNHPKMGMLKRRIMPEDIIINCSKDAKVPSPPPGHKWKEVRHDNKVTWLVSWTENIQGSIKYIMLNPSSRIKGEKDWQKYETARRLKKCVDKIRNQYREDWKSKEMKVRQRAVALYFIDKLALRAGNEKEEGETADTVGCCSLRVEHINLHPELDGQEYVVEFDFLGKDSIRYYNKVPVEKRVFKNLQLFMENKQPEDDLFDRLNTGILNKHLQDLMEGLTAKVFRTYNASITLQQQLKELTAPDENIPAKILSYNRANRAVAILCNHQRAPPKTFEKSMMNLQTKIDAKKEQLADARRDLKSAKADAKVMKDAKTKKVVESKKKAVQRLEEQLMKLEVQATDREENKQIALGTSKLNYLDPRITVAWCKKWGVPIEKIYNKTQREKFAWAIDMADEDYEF

Row | Compound | inhibition [1] [%] | IC50 (T47D) [nM] | IC50 (HeLa) [µM] | IC50 (DU-145) [nM] | IC50 (HCT-15) [nM] | inhibition [2] [%] | inhibition [3] [%]
1 | Oc1cccc(-c2cc(-c3cccc(C(F)(F)F)c3)nc3c2Cc2cc(O)ccc2-3)c1 | 29 | 1330 | 2.03 | 1420 | 2220 | 85.2 | 10.2
2 | Oc1cccc2c1Cc1c(-c3ccccc3)cc(-c3ccccc3)nc1-2 | 1.3 | 1770 | 4.18 | 2710 | 3390 | 75.7 | 4.6
3 | Oc1cccc(-c2cc(-c3cccc(F)c3)nc3c2Cc2ccc(O)cc2-3)c1 | 4.9 | 540 | 3.45 | 2170 | 1190 | 44.2 | 17.1
4 | Oc1ccc(-c2cc(-c3ccc(Cl)cc3)c3c(n2)-c2cc(O)ccc2C3)cc1 | 10.8 | 2670 | 10.1 | 1740 | 12000 | 95.3 | 14.2
5 | Oc1ccccc1-c1cc(-c2ccc(C(F)(F)F)cc2)nc2c1Cc1cccc(O)c1-2 | 0.9 | 4200 | 5.24 | 4500 | 3490 | 92.2 | 13.6
6 | Oc1ccc2c(c1)Cc1c(-c3ccccc3O)cc(-c3ccccc3)nc1-2 | 0 | 2440 | 27.4 | 1000 | 2080 | 74.8 | 8.2
7 | Oc1ccc2c(c1)-c1nc(-c3cccc(Cl)c3)cc(-c3ccccc3O)c1C2 | 10.8 | 1160 | 2.77 | 320 | 1760 | 87.9 | 22.9
8 | Oc1ccc(-c2cc(-c3ccc(C(F)(F)F)cc3)nc3c2Cc2cccc(O)c2-3)cc1 | 0 | > 50000 | > 50 | 13200 | > 50000 | 82.3 | 18.5
9 | Oc1ccccc1-c1cc(-c2cccc(C(F)(F)F)c2)nc2c1Cc1c(O)cccc1-2 | 5.3 | 770 | 4.25 | 1870 | 3340 | 94.2 | 0.3
10 | Oc1ccc(-c2cc(-c3ccccc3Cl)c3c(n2)-c2ccc(O)cc2C3)cc1 | 7 | 2700 | 4.92 | 3250 | 4270 | 80 | 11.9
11 | Oc1cccc(-c2cc(-c3ccccc3C(F)(F)F)nc3c2Cc2ccc(O)cc2-3)c1 | 3.1 | 1220 | 3.71 | 1830 | 1670 | 79 | 1.8
12 | Oc1ccccc1-c1cc(-c2ccccc2C(F)(F)F)nc2c1Cc1cccc(O)c1-2 | 4 | 750 | 1.99 | 2000 | 1640 | 84.8 | 0
13 | Oc1ccc(-c2cc(-c3cccc(Cl)c3)nc3c2Cc2c(O)cccc2-3)cc1 | 36.9 | 620 | 3.56 | 220 | 1840 | 72.8 | 1.2
14 | Oc1cccc(-c2cc(-c3ccccc3)nc3c2Cc2cc(O)ccc2-3)c1 | 0 | 2660 | 5.64 | 600 | 1480 | 96.8 | 20
15 | Oc1ccccc1-c1cc(-c2ccccc2C(F)(F)F)nc2c1Cc1c(O)cccc1-2 | 1.8 | 3020 | 3.95 | 1380 | 1740 | 83.7 | 3.5
16 | Oc1ccc(-c2cc(-c3cccc(Cl)c3)nc3c2Cc2cc(O)ccc2-3)cc1 | 31.9 | 1200 | 1.17 | 1200 | 750 | 100 | 0
17 | Oc1ccc2c(c1)Cc1c(-c3ccccc3O)cc(-c3cccc(C(F)(F)F)c3)nc1-2 | 4.1 | 700 | 3.1 | 1720 | 3890 | 85.4 | 0
18 | Oc1ccc2c(c1)Cc1c(-c3ccccc3)cc(-c3ccccc3)nc1-2 | 2.1 | 700 | 4.94 | 3820 | 3370 | 54.2 | 2.1
19 | Oc1ccc(-c2cc(-c3ccc(Cl)cc3)nc3c2Cc2cc(O)ccc2-3)cc1 | 50.2 | 1840 | 1.02 | 1910 | 770 | 100 | 0
20 | Oc1ccc(-c2cc(-c3ccc(F)cc3)nc3c2Cc2ccc(O)cc2-3)cc1 | 1.4 | 1140 | 2.25 | 2340 | 2540 | 47.6 | 0.9
21 | Oc1cccc(-c2cc(-c3ccc(Cl)cc3)c3c(n2)-c2cc(O)ccc2C3)c1 | 12.4 | > 50000 | > 50 | 32200 | > 50000 | 80.4 | 7.3
22 | Oc1ccc(-c2cc(-c3ccccc3F)nc3c2Cc2cccc(O)c2-3)cc1 | 1.4 | 47200 | > 50 | 10300 | > 50000 | 47.1 | 11.7
23 | Oc1ccc2c(c1)-c1nc(-c3ccccc3)cc(-c3ccccc3O)c1C2 | 0 | 2330 | 3.74 | 150 | 3010 | 97.4 | 0
24 | Oc1cccc(-c2cc(-c3cccc(Cl)c3)nc3c2Cc2cc(O)ccc2-3)c1 | 37.8 | 860 | 5.99 | 3210 | 1620 | 80.2 | 0
25 | Oc1cccc(-c2cc(-c3ccc(C(F)(F)F)cc3)nc3c2Cc2cccc(O)c2-3)c1 | 0 | 2140 | 6.66 | 2220 | 11300 | 100 | 0
26 | Oc1cccc(-c2cc(-c3cccc(Cl)c3)nc3c2Cc2c(O)cccc2-3)c1 | 24.1 | 1520 | 3.31 | 1490 | 1130 | 100 | 0.5
27 | Oc1ccc(-c2cc(-c3ccccc3Cl)nc3c2Cc2cc(O)ccc2-3)cc1 | 53.6 | 1870 | 0.7 | 430 | 1850 | 86.6 | 7.6
28 | Oc1ccc2c(c1)Cc1c(-c3ccc(Cl)cc3)cc(-c3ccccc3O)nc1-2 | 0 | > 50000 | > 50 | > 50000 | > 50000 | 70.8 | 21.4
